IC50, ED50 and EC50 data for twelve compounds are collected here from ChEMBL document CHEMBL1141458, “Prospects for metabotropic glutamate 1 receptor antagonists in the treatment of neuropathic pain” (J Med Chem, 2007).

What all share (assay type): functional
Assay [1] deals with T1, Metabotropic glutamate receptor 1 (Homo sapiens, UniProt Q13255). Put plainly: Antagonist activity at mGlu1 receptor.
The test system of assay [2] is Rattus norvegicus. The assay can be described thus: Effect on pain in ip dosed rat in late phase of formalin assay.
Assay [3] deals with Rattus norvegicus. The assay can be described thus: Effect on carrageenan model of inflammatory pain in ip dosed rat.
The test system of assay [4] is Rattus norvegicus. Put plainly: Effect on CFA-induced hyperalgesia in ip dosed rat.
Assay [5] deals with T2, Metabotropic glutamate receptor 2 (Homo sapiens, UniProt Q14416). The assay can be described thus: Agonist activity at mGlu2 receptor.
T2 sequence (Q14416 whole entry): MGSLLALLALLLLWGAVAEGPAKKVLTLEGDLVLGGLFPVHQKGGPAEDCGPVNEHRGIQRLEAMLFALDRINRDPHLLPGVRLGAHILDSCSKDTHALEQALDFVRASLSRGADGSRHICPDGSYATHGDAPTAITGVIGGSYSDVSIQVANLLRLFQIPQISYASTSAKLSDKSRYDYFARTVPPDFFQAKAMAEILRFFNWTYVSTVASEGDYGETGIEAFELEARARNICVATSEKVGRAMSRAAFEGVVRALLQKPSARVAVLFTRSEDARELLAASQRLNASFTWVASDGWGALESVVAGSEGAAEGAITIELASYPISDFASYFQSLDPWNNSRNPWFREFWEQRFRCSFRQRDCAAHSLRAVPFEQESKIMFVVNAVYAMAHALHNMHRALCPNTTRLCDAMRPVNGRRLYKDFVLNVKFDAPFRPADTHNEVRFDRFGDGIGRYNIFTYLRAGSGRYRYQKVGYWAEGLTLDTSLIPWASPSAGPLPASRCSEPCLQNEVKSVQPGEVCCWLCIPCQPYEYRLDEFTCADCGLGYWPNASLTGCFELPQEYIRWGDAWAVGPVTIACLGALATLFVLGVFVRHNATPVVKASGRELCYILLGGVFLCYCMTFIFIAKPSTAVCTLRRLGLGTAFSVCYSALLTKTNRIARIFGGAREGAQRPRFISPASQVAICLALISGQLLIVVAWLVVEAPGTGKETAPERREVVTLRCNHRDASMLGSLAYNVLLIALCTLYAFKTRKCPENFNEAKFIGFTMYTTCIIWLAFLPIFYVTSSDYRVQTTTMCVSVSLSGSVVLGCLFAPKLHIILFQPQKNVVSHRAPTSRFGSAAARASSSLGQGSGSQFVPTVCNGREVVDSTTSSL
The subject of assay [6] is Mus musculus. The assay can be described thus: Effect on pain in po dosed mouse in early phase of formalin assay.
Assay [7] relates to Mus musculus. Put plainly: Effect on pain in po dosed mouse in late phase of formalin assay.
Assay [8] addresses T1, Metabotropic glutamate receptor 1. The assay can be described thus: Antagonist activity at human mGlu1 receptor.
For assay [9], the target named is T2, Metabotropic glutamate receptor 2. The assay can be described thus: Antagonist activity at mGlu2 receptor.
The target of assay [10] is T1, Metabotropic glutamate receptor 1. Put plainly: Antagonist activity at human mGlu1b receptor.

pEC50, pIC50: −log10 of the molar value.

T1 sequence (Q13255 whole entry): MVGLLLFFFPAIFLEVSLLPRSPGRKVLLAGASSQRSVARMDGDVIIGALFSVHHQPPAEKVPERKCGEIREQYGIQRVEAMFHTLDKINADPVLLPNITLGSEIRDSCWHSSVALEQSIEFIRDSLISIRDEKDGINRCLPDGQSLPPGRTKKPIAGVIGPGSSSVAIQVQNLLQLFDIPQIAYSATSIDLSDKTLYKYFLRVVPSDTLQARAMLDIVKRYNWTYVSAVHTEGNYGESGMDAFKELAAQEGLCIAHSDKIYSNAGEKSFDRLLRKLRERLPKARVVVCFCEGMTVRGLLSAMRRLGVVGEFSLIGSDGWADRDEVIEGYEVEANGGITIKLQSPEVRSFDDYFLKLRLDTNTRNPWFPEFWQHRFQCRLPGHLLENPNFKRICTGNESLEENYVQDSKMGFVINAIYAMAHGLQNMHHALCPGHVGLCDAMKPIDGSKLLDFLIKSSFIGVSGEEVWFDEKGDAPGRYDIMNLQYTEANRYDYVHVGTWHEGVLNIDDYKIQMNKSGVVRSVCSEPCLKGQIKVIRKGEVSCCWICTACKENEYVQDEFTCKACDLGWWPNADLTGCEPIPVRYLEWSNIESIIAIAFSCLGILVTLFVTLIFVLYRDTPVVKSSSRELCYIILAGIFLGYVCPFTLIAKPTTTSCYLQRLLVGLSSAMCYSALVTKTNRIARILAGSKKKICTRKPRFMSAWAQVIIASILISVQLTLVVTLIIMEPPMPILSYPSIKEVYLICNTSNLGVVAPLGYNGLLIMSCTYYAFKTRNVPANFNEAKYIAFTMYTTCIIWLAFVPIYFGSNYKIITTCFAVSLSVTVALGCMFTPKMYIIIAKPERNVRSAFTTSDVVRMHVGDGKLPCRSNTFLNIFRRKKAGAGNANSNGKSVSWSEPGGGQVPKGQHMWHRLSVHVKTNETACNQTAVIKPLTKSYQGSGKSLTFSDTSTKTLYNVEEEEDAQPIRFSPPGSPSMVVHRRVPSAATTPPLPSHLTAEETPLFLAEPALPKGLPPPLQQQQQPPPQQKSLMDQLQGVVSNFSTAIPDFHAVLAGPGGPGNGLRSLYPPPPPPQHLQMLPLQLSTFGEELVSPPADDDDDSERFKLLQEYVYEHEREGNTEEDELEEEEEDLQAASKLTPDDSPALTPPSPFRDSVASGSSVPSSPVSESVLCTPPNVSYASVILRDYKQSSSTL

`C=C1C[C@@H]2COC(=O)[C@]2(Cc2ccc3ccccc3c2)C1` had a pIC50 in assay [1] of 6.80. On the same count and under the same terms, the result for `N[C@H](C(=O)O)c1ccc(C(=O)O)cc1` reads 5.00. Regarding `CCc1ccc(-n2cnc3c(sc4nccc(N(C)C)c43)c2=O)cc1`, the ED50 in assay [2] was 15 µmol/kg; in assay [3] it was 11 µmol/kg; in [4], 15 µmol/kg.

Regarding `NC(CC1c2ccccc2Sc2ccccc21)(C(=O)O)C1CC(C(=O)O)C1` (configuration not stated), the negative logarithm of the IC50 (pIC50) in assay [1] was 6.00. The same measure, in the same setting: then `N[C@H](C(=O)O)c1ccc(O)c(C(=O)O)c1`, with 4.40. Regarding `N[C@H](C(=O)O)c1ccc(C(=O)O)c(O)c1`, in [5], the pEC50 is 4.32. In the case of `CCCOC(=O)c1[nH]c(C)c(C(=O)OC(C)C(C)(C)C)c1C` (configuration not stated), the ED50 was found to be 3 mg/kg in assay [2], 0.3 mg/kg in [6] and 0.3 mg/kg in assay [7]. Take `COc1ccc(Nc2ncnc3ccc(OC)cc23)cc1`: the pIC50 in assay [1] is 7.02. As to `CO[C@H]1CC[C@@H](C(=O)c2ccc3nc4c(cc3c2)CCCO4)CC1`, the negative-log IC50 (pIC50) in [8] is 8.92.

As for `C[C@@](N)(C(=O)O)c1ccc(C(=O)O)cc1`, the pIC50 in assay [9] and in assay [1] was 5.37 in each case.

On to `Cc1c(C2=CCC(C(=O)N(C)C(C)C)CC2)nnn1-c1cccnc1F` (configuration not stated), for which the pIC50 in assay [1] was 8.22. As for `CCOC(=O)C12CC1/C(=N\O)c1ccccc1O2` (configuration not stated), the negative logarithm of the IC50 (pIC50) in assay [10] is 5.18.
